# In PMC4503950, “EGCG reverses human neutrophil elastase-induced migration in A549 cells by directly binding to HNE and by regulating α1-AT” (Scientific Reports, 2015):
# Target: T1, human neutrophil elastase (HNE) (Homo sapiens, UniProt P08246)
# T1 construct: gene ELANE; Recombinant HNE protein (molecular mass, 25 kDa)
# T1 sequence (P08246 30-247): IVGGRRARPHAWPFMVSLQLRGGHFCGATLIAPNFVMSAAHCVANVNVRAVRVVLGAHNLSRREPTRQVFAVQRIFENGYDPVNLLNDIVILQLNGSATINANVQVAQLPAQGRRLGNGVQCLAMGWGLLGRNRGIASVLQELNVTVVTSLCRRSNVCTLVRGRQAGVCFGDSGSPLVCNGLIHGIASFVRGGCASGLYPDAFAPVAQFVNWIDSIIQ
# Assay: SPR (Biacore […], HNE immobilized on CM5 chip, […] Langmuir fit); also enzyme inhibition with IC50 […]
# Assay type: binding
compound,measurement,value
O=C(OC1Cc2c(O)cc(O)cc2OC1c1cc(O)c(O)c(O)c1)c1cc(O)c(O)c(O)c1 (stereo not shown) [EGCG],Kd,41.4 µM
